Assay results as given in ChEMBL document CHEMBL4325915, “Synthesis of zwitterionic N-chlorohydantoins for antibacterial applications” (2018).

How the values were obtained:
Format in all cases: functional
[1] = tested on: Staphylococcus aureus; assay: Bactericidal activity against Staphylococcus aureus ATCC 25923 assessed as log reduction in bacterial colonies preincubated for 10 mins followed by bacterial plating on Luria-Bertani plates and measured after 18 to 24 hrs relative to control
[2] = tested on: Staphylococcus aureus; assay: Bactericidal activity against Staphylococcus aureus ATCC 25923 assessed as reduction in bacterial colonies preincubated for 10 mins followed by bacterial plating on Luria-Bertani plates and measured after 18 to 24 hrs relative to control; parameters: concentration or dose not given beside the values
[3] = tested on: Staphylococcus aureus; assay: Bactericidal activity against Staphylococcus aureus ATCC 25923 assessed as reduction in bacterial colonies preincubated for 5 mins followed by bacterial plating on Luria-Bertani plates and measured after 18 to 24 hrs relative to control; parameters: concentration or dose not given beside the values
[4] = tested on: Escherichia coli; assay: Bactericidal activity against Escherichia coli ATCC 25922 assessed as log reduction in bacterial colonies preincubated for 10 mins followed by bacterial plating on Luria-Bertani plates and measured after 18 to 24 hrs relative to control
[5] = tested on: Staphylococcus aureus; assay: Bactericidal activity against Staphylococcus aureus ATCC 25923 assessed as log reduction in bacterial colonies preincubated for 5 mins followed by bacterial plating on Luria-Bertani plates and measured after 18 to 24 hrs relative to control
[6] = tested on: Escherichia coli; assay: Bactericidal activity against Escherichia coli ATCC 25922 assessed as reduction in bacterial colonies preincubated for 5 mins followed by bacterial plating on Luria-Bertani plates and measured after 18 to 24 hrs relative to control; parameters: concentration or dose not given beside the values
[7] = tested on: Escherichia coli; assay: Bactericidal activity against Escherichia coli ATCC 25922 assessed as reduction in bacterial colonies preincubated for 10 mins followed by bacterial plating on Luria-Bertani plates and measured after 18 to 24 hrs relative to control; parameters: concentration or dose not given beside the values
[8] = tested on: Escherichia coli; assay: Bactericidal activity against Escherichia coli ATCC 25922 assessed as log reduction in bacterial colonies preincubated for 5 mins followed by bacterial plating on Luria-Bertani plates and measured after 18 to 24 hrs relative to control
[9] = tested on: Staphylococcus aureus; assay: Bactericidal activity against Staphylococcus aureus ATCC 25923 assessed as reduction in bacterial colonies using initial inoculum of 4 x 10^7 CFU/ml preincubated for 5 mins followed by bacterial plating on Luria-Bertani plates and measured after 18 to 24 hrs relative to control; parameters: scale not given: the % may be the effect or the level left

`CC1(C)NC(=O)N(CCC[N+](C)(C)CC(=O)[O-])C1=O` was tested, and the “log(activity)” value [1] was 0, the Activity [2] was 0% and the Activity [3] was 0%. The “log(activity)” value [4] was 0, the “log(activity)” value [5] was 0 and the Activity [6] was 0%. For the same compound, the Activity [7] was 0% and the “log(activity)” value [8] was 0.

With `CC1(C)C(=O)N(CCC[N+](C)(C)CC(=O)[O-])C(=O)N1Cl` the “log(activity)” value [1] was 6.83, the Activity [2] was 100% and the Activity [3] was 34.3%. For the same compound, the Activity [9] was 15%, the “log(activity)” value [4] was 6.63 and the “log(activity)” value [5] was 0.18. The Activity [6] was 86.7%, the Activity [7] was 100% and the “log(activity)” value [8] was 0.88.

With `CC1(C)NC(=O)N(CCC[N+](C)(C)CCCS(=O)(=O)[O-])C1=O` the “log(activity)” value [1] was 0, the Activity [2] was 0% and the Activity [3] was 0%. The “log(activity)” value [4] was 0, the “log(activity)” value [5] was 0 and the Activity [6] was 0%. For the same compound, the Activity [7] was 0% and the “log(activity)” value [8] was 0.

For `CC1(C)C(=O)N(CCC[N+](C)(C)C)C(=O)N1Cl.[Cl-]`, the “log(activity)” value [1] was 0.6, the Activity [2] was 75% and the Activity [3] was 11.8%. The “log(activity)” value [4] was 2.18, the “log(activity)” value [5] was 0.05 and the Activity [6] was 42.2%. For the same compound, the Activity [7] was 99.3% and the “log(activity)” value [8] was 0.24.

With `CC1(C)NC(=O)N(CCO)C1=O` the “log(activity)” value [1] was 0, the Activity [2] was 0% and the Activity [3] was 0%. For the same compound, the “log(activity)” value [4] was 0, the “log(activity)” value [5] was 0 and the Activity [6] was 0%. For the same compound, the Activity [7] was 0% and the “log(activity)” value [8] was 0.

With `CC1(C)C(=O)N(CCO)C(=O)N1Cl` the “log(activity)” value [1] was 6.83, the Activity [2] was 100% and the Activity [3] was 100%. The Activity [9] was 99.8%, the “log(activity)” value [4] was 6.63 and the “log(activity)” value [5] was 6.83. The Activity [6] was 100%, the Activity [7] was 100% and the “log(activity)” value [8] was 6.63.

In the case of `CC1(C)NC(=O)N(CCC[N+](C)(C)C)C1=O.[Cl-]`, the “log(activity)” value [1] is reported as 0, the Activity [2] is reported as 0% and the Activity [3] is reported as 0%. The “log(activity)” value [4] was 0, the “log(activity)” value [5] was 0 and the Activity [6] was 0%. The Activity [7] was 0% and the “log(activity)” value [8] was 0.

For `CC1(C)C(=O)N(CCC[N+](C)(C)CCCS(=O)(=O)[O-])C(=O)N1Cl`, the “log(activity)” value [1] was 0.29, the Activity [2] was 49.1% and the Activity [3] was 19.8%. For the same compound, the “log(activity)” value [4] was 1, the “log(activity)” value [5] was 0.1 and the Activity [6] was 25.1%. For the same compound, the Activity [7] was 89.9% and the “log(activity)” value [8] was 0.13.
